Reference: PubChem BioAssay AID248 (DTP/NCI, 2004)
Values joined by “and” are separate entries in the source; they are usually repeats but may differ in a detail not shown here. Identical values can stand only once. Toxic doses and inconclusive results are not listed. Rule as the data show it: active = T/C of 150% or more; inactive = T/C below 125%.

Tested on: L1210 leukemia ip in BDF1 mice, survival T/C
Experiment: NCI In Vivo Anticancer Drug Screen. Data for tumor model L1210 Leukemia (intraperitoneal) in B6D2F1 (BDF1) mice
Conditions: endpoint: mean survival time, higher = longer survival
Outline: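 Transplanted-tumor mice were given test agent; controls received vehicle only. Survival readings from the two groups were divided (treated over control).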

[1] = dose: 25.0 mg/kg/injection, schedule: Q01DX009 (ip), vehicle: saline with Tween-80
[2] = dose: 100.0 mg/kg/injection, schedule: Q04DX002 (ip), vehicle: saline with Tween-80
[3] = dose: 100.0 mg/kg/injection, schedule: Q01DX001 (ip), vehicle: carboxymethylcellulose (CMC)
[4] = dose: 200.0 mg/kg/injection, schedule: Q01DX001 (ip), vehicle: carboxymethylcellulose (CMC)
[5] = dose: 100.0 mg/kg/injection, schedule: Q04DX003 (ip), vehicle: saline with Tween-80
[6] = dose: 200.0 mg/kg/injection, schedule: Q04DX003 (ip), vehicle: saline with Tween-80
[7] = dose: 400.0 mg/kg/injection, schedule: Q04DX003 (ip), vehicle: saline with Tween-80
[8] = dose: 100.0 mg/kg/injection, schedule: Q01DX009 (ip), vehicle: saline
[9] = dose: 200.0 mg/kg/injection, schedule: Q01DX009 (ip), vehicle: saline
[10] = dose: 400.0 mg/kg/injection, schedule: Q01DX009 (ip), vehicle: saline
[11] = dose: 100.0 mg/kg/injection, schedule: Q01DX009 (ip), vehicle: saline with Tween-80
[12] = dose: 400.0 mg/kg/injection, schedule: Q01DX009 (ip), vehicle: saline with Tween-80
[13] = dose: 100.0 mg/kg/injection, schedule: Q04DX003 (ip), vehicle: saline
[14] = dose: 200.0 mg/kg/injection, schedule: Q04DX003 (ip), vehicle: saline
[15] = dose: 400.0 mg/kg/injection, schedule: Q04DX003 (ip), vehicle: saline
[16] = dose: 100.0 mg/kg/injection, schedule: Q01DX009 (ip), vehicle: Klucel (hydroxypropylcellulose) (HPC)
[17] = dose: 200.0 mg/kg/injection, schedule: Q01DX009 (ip), vehicle: Klucel (hydroxypropylcellulose) (HPC)
[18] = dose: 100.0 mg/kg/injection, schedule: Q04DX002 (ip), vehicle: saline
[19] = dose: 200.0 mg/kg/injection, schedule: Q04DX002 (ip), vehicle: saline
[20] = dose: 400.0 mg/kg/injection, schedule: Q04DX002 (ip), vehicle: saline
[21] = dose: 100.0 mg/kg/injection, schedule: Q01DX001 (ip), vehicle: saline
[22] = dose: 200.0 mg/kg/injection, schedule: Q01DX001 (ip), vehicle: saline
[23] = dose: 400.0 mg/kg/injection, schedule: Q01DX001 (ip), vehicle: saline
[24] = dose: 50.0 mg/kg/injection, schedule: Q01DX009 (ip), vehicle: saline with Tween-80
[25] = dose: 200.0 mg/kg/injection, schedule: Q04DX002 (ip), vehicle: saline with Tween-80
[26] = dose: 50.0 mg/kg/injection, schedule: Q01DX001 (ip), vehicle: saline
[27] = dose: 50.0 mg/kg/injection, schedule: Q01DX009 (ip), vehicle: Klucel (hydroxypropylcellulose) (HPC)
[28] = dose: 100.0 mg/kg/injection, schedule: Q04DX003 (ip), vehicle: Klucel (hydroxypropylcellulose) (HPC)

Measured: T/C

c1ccc(C[n+]2ccc3ccccc3c2)cc1
inactive: dose: 6.25 mg/kg/injection, schedule: Q01DX009 (ip), vehicle: saline with Tween-80 95 % of control | dose: 6.25 mg/kg/injection, schedule: Q04DX003 (ip), vehicle: saline with Tween-80 107 % of control | dose: 10.0 mg/kg/injection, schedule: Q04DX003 (ip), vehicle: saline 105 % of control | dose: 12.5 mg/kg/injection, schedule: Q01DX009 (ip), vehicle: saline with Tween-80 103 % of control | dose: 12.5 mg/kg/injection, schedule: Q01DX009 (ip), vehicle: saline 112 % of control | dose: 12.5 mg/kg/injection, schedule: Q04DX003 (ip), vehicle: saline with Tween-80 98 % of control | dose: 20.0 mg/kg/injection, schedule: Q04DX003 (ip), vehicle: saline 92 % of control | [1] 111 % of control | dose: 25.0 mg/kg/injection, schedule: Q01DX009 (ip), vehicle: saline 107 % of control | dose: 25.0 mg/kg/injection, schedule: Q04DX003 (ip), vehicle: saline with Tween-80 91 % of control | dose: 40.0 mg/kg/injection, schedule: Q04DX003 (ip), vehicle: saline 94 % of control | dose: 50.0 mg/kg/injection, schedule: Q01DX009 (ip), vehicle: saline 104 % of control | dose: 50.0 mg/kg/injection, schedule: Q04DX003 (ip), vehicle: saline 95 % of control

COc1nn(O)cc(C)c1=N
inactive: dose: 25.0 mg/kg/injection, schedule: Q04DX002 (ip), vehicle: saline with Tween-80 92 % of control | [2] 96 % of control

O=C1CC(=O)N(Cc2ccccc2)C(=O)N1
inactive: [3] 86 % of control | [4] 95 % of control

CC1C(C)(C)P(=O)(Oc2ccc3ccccc3c2)C1(C)C (stereo not given)
inactive: [5] 100 % of control | [6] 97 % of control | [7] 92 % of control

Cn1c(=O)c2c(ncn2CCCCO)n(C)c1=O
inactive: [8] 94 % of control | [9] 95 % of control | [10] 92 % of control

CCOC(=O)CNC(=O)Nc1ccc(NC(C)=O)cc1
inactive: [11] 94 % of control | dose: 200.0 mg/kg/injection, schedule: Q01DX009 (ip), vehicle: saline with Tween-80 94 % of control | [12] 88 % of control

Oc1ccc2ccccc2c1CN1CCCCC1
inactive: dose: 75.0 mg/kg/injection, schedule: Q01DX009 (ip), vehicle: saline 92 % of control | [13] 90 % of control | dose: 150.0 mg/kg/injection, schedule: Q01DX009 (ip), vehicle: saline 95 % of control | [14] 101 % of control | dose: 300.0 mg/kg/injection, schedule: Q01DX009 (ip), vehicle: saline 89 % of control | [15] 106 % of control

N#Cc1ccc(/C=N/N2CCN(/N=C/c3ccc(C#N)cc3)CC2)cc1
inactive: [3] 96 % of control | [4] 91 % of control | dose: 400.0 mg/kg/injection, schedule: Q01DX001 (ip), vehicle: carboxymethylcellulose (CMC) 94 % of control

Clc1ccc(CSc2nc3ccccc3[nH]2)cc1
inactive: [16] 94 % of control | [17] 103 % of control | dose: 400.0 mg/kg/injection, schedule: Q01DX009 (ip), vehicle: Klucel (hydroxypropylcellulose) (HPC) 103 % of control

CCCCCCCCCCCCCCCCOC(=O)C[n+]1cccc(C(N)=O)c1
inactive: [13] 92 % of control | [14] 99 % of control

C=CCNC(N)=S
inactive: [18] 100 % of control | [19] 107 % of control | [20] 95 % of control

[Mg+2]
inactive: [21] 96 % of control | [8] 95 % of control | [13] 93 % of control | [22] 91 % of control | [9] 95 % of control | [14] 89 % of control | [23] 96 % of control | [10] 97 % of control | [15] 88 % of control

O=C(O)c1cnc(Cl)c(Br)c1
inactive: [5] 94 % of control | [6] 94 % of control | [7] 96 % of control

NC(=O)c1ccccc1OCc1ccccc1
inactive: dose: 75.0 mg/kg/injection, schedule: Q04DX003 (ip), vehicle: Klucel (hydroxypropylcellulose) (HPC) 97 % of control | dose: 150.0 mg/kg/injection, schedule: Q04DX003 (ip), vehicle: Klucel (hydroxypropylcellulose) (HPC) 99 % of control | dose: 300.0 mg/kg/injection, schedule: Q04DX003 (ip), vehicle: Klucel (hydroxypropylcellulose) (HPC) 91 % of control

O=C(CNC(=O)c1ccccc1)N/N=C/c1cccc([N+](=O)[O-])c1
inactive: [1] 95 % of control | [24] 90 % of control | [11] 88 % of control

Oc1ccc(Br)cc1/C=N/c1nc(-c2ccccc2)cs1.Oc1ccc(Br)cc1/C=N/c1nc(-c2ccccc2)cs1.[Zn]
inactive: [21] 86 % of control

C(=C(CC1CCC1)CC1CCC1)C1CCC1
inactive: [2] 96 % of control | [25] 90 % of control

N#C/C(=C\C1C(Cl)CCCC1Cl)C1CCC([N+](=O)[O-])CC1 (stereo not given)
inactive: [2] 101 % of control | [25] 97 % of control | dose: 400.0 mg/kg/injection, schedule: Q04DX002 (ip), vehicle: saline with Tween-80 101 % of control

CCCOC(=O)C(C)(O)C(Cl)c1ccccc1 (stereo not given)
inactive: dose: 37.5 mg/kg/injection, schedule: Q01DX009 (ip), vehicle: Klucel (hydroxypropylcellulose) (HPC) 96 % of control | [26] 104 % of control | dose: 58.0 mg/kg/injection, schedule: Q01DX001 (ip), vehicle: saline 108 % of control | dose: 75.0 mg/kg/injection, schedule: Q01DX009 (ip), vehicle: Klucel (hydroxypropylcellulose) (HPC) 100 % of control | dose: 88.0 mg/kg/injection, schedule: Q01DX001 (ip), vehicle: saline 107 % of control | [21] 103 % of control | [18] 109 % of control and 114 % of control | dose: 133.0 mg/kg/injection, schedule: Q01DX001 (ip), vehicle: saline 103 % of control | dose: 150.0 mg/kg/injection, schedule: Q01DX009 (ip), vehicle: Klucel (hydroxypropylcellulose) (HPC) 104 % of control | [22] 106 % of control and 109 % of control | [19] 117 % of control | dose: 300.0 mg/kg/injection, schedule: Q01DX001 (ip), vehicle: saline 98 % of control | dose: 300.0 mg/kg/injection, schedule: Q01DX009 (ip), vehicle: Klucel (hydroxypropylcellulose) (HPC) 104 % of control | [23] 96 % of control | [20] 105 % of control and 118 % of control

O=C(NCCNC(c1ccccc1)C(NCCNC(=O)c1ccccc1)c1ccccc1)c1ccccc1 (stereo not given)
inactive: [1] 94 % of control | [24] 89 % of control | [11] 97 % of control and 89 % of control | [12] 89 % of control

COC(OC)c1cc(=O)[nH]c(N)n1
inactive: [26] 103 % of control | [27] 109 % of control | dose: 50.0 mg/kg/injection, schedule: Q04DX003 (ip), vehicle: Klucel (hydroxypropylcellulose) (HPC) 97 % of control | [21] 101 % of control | [16] 100 % of control | [28] 93 % of control | [22] 108 % of control | [17] 104 % of control | dose: 200.0 mg/kg/injection, schedule: Q04DX003 (ip), vehicle: Klucel (hydroxypropylcellulose) (HPC) 96 % of control

CC(C)CN(CC(C)C)C(=O)CCl
inactive: [3] 106 % of control

COC(=O)c1cc([N+](=O)[O-])c(Br)s1
inactive: [28] 93 % of control

NC(Cc1cnc(N=Nc2ccc(S(N)(=O)=O)cc2)[nH]1)C(=O)O (stereo not given)
inactive: [27] 100 % of control | [16] 93 % of control | [17] 93 % of control
